Converted amounts (≈) assume the structure as drawn.
Key:
[1] = Solubility in cyclodextrin solutions (HPLC)
ERK/MAPK = test: CSF pERK/ERK after pretreatment by ELISA (Example 3); format: in vivo, piglets; details: 30 minutes after pretreatment
basilar artery = test: Subarachnoid hemorrhage model (Example 8); format: in vivo
[2] = Physical and chemical properties: pKa; details: Non-ionizable
pial artery [3] = format: in vivo, newborn pigs
pial artery [4] = details: pig, in vivo
ERK = test: CSF ERK activity (pERK/ERK) after HI by ELISA (Example 2); format: in vivo, newborn pigs; details: 60 min after HI; 10 μg/kg i.v. at 0 or 30 min after HI
Description: Newborn pigs (1-5 days old, 1.2-1.5 kg) of both sexes were used in this study. The animal experimental protocol was approved by the Institutional Animal Care and Use Committee of the University of Pennsylvania. As described previously, Isoflurane (1 to 2 minimum alveolar concentration) was initially used for anesthesia induction, followed by α-chloralose (30-50 mg/kg supplemented with 5 mg/kg/hr intravenously) for maintenance of anesthesia. After tracheotomy, the animals were initially ventilated with room air and kept warm with heating pad to maintain the rectal temperature at 37-39° C. Bilateral femoral arteries were catheterized to monitor the blood pressure, blood gas tensions and pH. The femoral vein was catheterized for medication administration. A closed cranial window, consisting of a steel ring with a glass cover slip, connecting to 3 ports, was placed for direct pial artery visualization and diameter measurement. Small pial arteries (120 to 160 μm) and arterioles (50 to 70 μm) were identified under a microscope, visualized on a monitor connected to the microscope, and measured via a video microscaler (model VPA 550, For-A-Corp., Los Angeles, Calif.). […]
ERK activity were then determined from frozen CSF samples described above. The levels of pERK and ERK were measured by ELISA kits (Enzo Life Sciences International, Inc., Plymouth Meeting, Pa.).

pial artery [5] = format: in vivo, piglets
pial artery [6] = details: 10%-16% changes compared to the baseline
cGMP = cGMP in CSF by ELISA (Example 1); format: in vivo, newborn pigs
[7] = Solubility in other solvents; details: thermodynamic from solid
[8] = test system: middle cerebral artery occlusion (MCAO); details: mouse, in vivo
[9] = 10 μg/kg i.v. co-administrated with nor-BIN 1 μM topical
[10] = 10 μg/kg i.v. immediately or 30 min after HI, 60 min after HI
[11] = SB203580 10 μM topical 30 min before salvinorin A
[12] = SP600125 1 μM topical 30 min before salvinorin A
[13] = U0126 1 mg/kg i.v. 30 min before salvinorin A
[14] = pretreatment 10 μg/kg i.v. 30 min before H/I

## COC(=O)[C@@H]1C[C@H](OC(C)=O)C(=O)[C@H]2[C@@]1(C)CC[C@H]1C(=O)O[C@H](c3ccoc3)C[C@]21C [Salvinorin A]
[1]; 20% 2-hydroxypropyl-β-cyclodextrin (HPBCD) in water, aqueous with cosolvent or surfactant or cyclodextrin, thermodynamic from solid, Concentration (solubility), 20% HPBCD, mean ± SD
  solubility: 0.1225 ± 0.0006 mg/mL (≈ 283 µM)
[1]; 20% 2-hydroxypropyl-β-cyclodextrin (HPBCD) in water, aqueous with cosolvent or surfactant or cyclodextrin, thermodynamic from solid, maximum concentration (solubility), HPBCD
  solubility: > 0.1 mg/mL
[1]; 20% 2-hydroxypropyl-β-cyclodextrin (HPBCD) in water, aqueous with cosolvent or surfactant or cyclodextrin, thermodynamic from solid, solubility, 20% HPBCD
  solubility: 0.1225 ± 0.0006 mg/mL (≈ 283 µM)
[1]; 20% 2-hydroxypropyl-γ-cyclodextrin (HPGCD) in water, aqueous with cosolvent or surfactant or cyclodextrin, thermodynamic from solid, Concentration (solubility), 20% HPGCD, mean ± SD
  solubility: 0.0526 ± 0.0009 mg/mL (≈ 122 µM)
[1]; 20% 2-hydroxypropyl-γ-cyclodextrin (HPGCD) in water, aqueous with cosolvent or surfactant or cyclodextrin, thermodynamic from solid, solubility, 20% HPGCD
  solubility: 0.0526 ± 0.0009 mg/mL (≈ 122 µM)
[1]; 20% α-cyclodextrin sulfated sodium salt in water, aqueous with cosolvent or surfactant or cyclodextrin, thermodynamic from solid, Concentration (solubility), 20% α-Cyclodextrin sulfated sodium salt, mean ± SD
  solubility: 0.001 ± 0.0001 mg/mL
[1]; 20% β-cyclodextrin sulfated sodium salt in water, aqueous with cosolvent or surfactant or cyclodextrin, thermodynamic from solid, Concentration (solubility), 20% β-Cyclodextrin sulfated sodium salt, mean ± SD
  solubility: 0.0015 ± 0.0001 mg/mL
[1]; water and α- or β-cyclodextrin sulfated sodium salt
  solubility: only minimally soluble
[1]; water, thermodynamic from solid, Concentration (solubility), 100% water, mean ± SD
  solubility: 0.001 ± 0.0001 mg/mL (≈ 2.31 µM)
ERK/MAPK
  ratio of pERK/ERK in CSF: increased significantly
ERK/MAPK; U0126 30 minutes before salvinorin
  ratio of pERK/ERK in CSF with U0126: unchanged
Basilar artery; 24 hour after SAH
  neurological score: no significant effect on the neurological score
Basilar artery; 24 hours after SAH, H&E
  diameter of the basilar artery: increased the diameter
  thickness of the wall of the basilar artery: decreased the thickness of the wall
[2]
  pKa: None
Pial artery [3]; [9]
  pial artery dilation response to hypercapnia after HI with nor-BIN: abolished completely
  pial artery dilation response to hypotension after HI with nor-BIN: abolished
Pial artery [3]; [10]
  pial artery dilation response to hypercapnia after HI: preserved the dilation responses of pial artery to hypercapnia
  pial artery dilation response to hypotension after HI: preserved the dilation responses of pial artery to hypotension
Pial artery [4]
  blood pressure changes during administration: No significant blood pressure changes
  dilation of constricted pial arteries: dilated pial arteries under elevated tone conditions
  dilation of pial artery: dose dependently (10 nM, 1 μM) dilated the pial artery
  dilation response in presence of L-NNA: abolished by L-NNA
  dilation response in presence of glibenclamide: blocked the dilation effects of salvinorin A
  dilation response in presence of naloxone: blocked the dilation effects
  dilation response in presence of norbinaltorphimine: blocked the dilation effects
  dilation response in presence of sulpiride: had no effect on the dilation response
  dilation with repeated administration: sustained dilation effects was observed
ERK
  CSF ERK activity (pERK/ERK): reduced to the baseline level
Pial artery [5]; [11]
  preserved response to hypercapnia with SB203580: No significant change in the preservative effects
  preserved response to hypotension with SB203580: no significantly changes
Pial artery [5]; [12]
  preserved response to hypercapnia with SP600125: No significant change in the preservative effects
  preserved response to hypotension with SP600125: no significantly changes
Pial artery [5]; [13]
  preserved response to hypercapnia with U0126: abolished by U0126
  preserved response to hypotension with U0126: abolished by U0126
Pial artery [5]; [14]
  pial artery dilation response to hypercapnia after hypoxia/ischemia: preserved the dilation response of pial artery to hypercapnia
  pial artery dilation response to hypotension after hypoxia/ischemia: preserved the dilation response of pial artery to hypotension
Pial artery [6]
  concentration required to effectively dilate pial arteries: 10 nM
cGMP; 10 min after administration
  cGMP in CSF: elevated cGMP in CSF
cGMP; L-NNA pretreatment
  cGMP in CSF in presence of L-NNA: L-NNA blocked the elevation of the cGMP
cGMP; norbinaltorphimine pretreatment, 10 nM and 1 μM
  cGMP in CSF in presence of norbinaltorphimine: Norbinaltorphimine blocked the elevation of cGMP
[7]; 1,2-propanediol, organic solvent or mixture
  solubility: 0.059 mg/mL (≈ 136 µM)
[7]; 1.25% Polysorbate 80 and […] Solutol HS15, aqueous with cosolvent or surfactant or cyclodextrin
  solubility: 0.025 mg/mL (≈ 57.8 µM)
[7]; 2-propanol, organic solvent or mixture
  solubility: 0.022 mg/mL (≈ 50.9 µM)
[7]; 5% Solutol HS15, aqueous with cosolvent or surfactant or cyclodextrin
  solubility: 0.026 mg/mL (≈ 60.1 µM)
[7]; 5% Vitamin E TPGS, aqueous with cosolvent or surfactant or cyclodextrin
  solubility: 0.045 mg/mL (≈ 104 µM)
[7]; 10% Tetraglycol, aqueous with cosolvent or surfactant or cyclodextrin
  solubility: < 0.002 mg/mL
[7]; 10% bile salts, aqueous with cosolvent or surfactant or cyclodextrin
  solubility: < 0.002 mg/mL
[7]; DMSO, organic solvent or mixture
  solubility: > 1 mg/mL
[7]; N,N-dimethylacetamide, organic solvent or mixture
  solubility: > 5 mg/mL
[7]; N-methylpyrolidinone, organic solvent or mixture
  solubility: > 10 mg/mL
[7]; […] Polysorbate 80, aqueous with cosolvent or surfactant or cyclodextrin
  solubility: < 0.002 mg/mL
[7]; ethanol, organic solvent or mixture
  solubility: > 1 mg/mL
[7]; glyceryl monocaprylate, oil or lipid
  solubility: < 0.002 mg/mL
[7]; water
  solubility: < 0.002 mg/mL
[8]
  blood brain barrier disruption and vascular leakage (Evans blue extravasation): reduced the disruption and leakage
  infarct size (TTC stains): dose-dependent reduction
  motor function, grip strength score: dose-dependent improvements in motor function
  neurobehavior: dose-dependent improvements
  overall motor function: improves overall motor function
  protective effect on leakage with norbinaltorphimine: inhibited the protective effect of salvinorin A

Reference: US11000505B2 (priority 2010, dated 2021)
